Experimental data reported in patent US8933232B2, “1,3,4-oxadiazole and 1,3,4-thiadiazole beta-lactamase inhibitors” (priority 2012, dated 2015).
Structures can show the parent of a compound that is named as a salt.

System: bacterial strains that express KPC β-lactamases
Assay: Synergy MIC / standard BLI potentiation MIC assay against strains expressing KPC β-lactamases
Format: cell-based
Settings: in the presence of a β-lactam; comparator Avibactam
Method: The experimental protocol was performed according to Clinical and Laboratory Standards Institute (CLSI) guidelines with modifications as described below (CLSI guidelines can be derived from the CLSI document M07-A9 published in January 2012: “Methods for Dilution Antimicrobial Susceptibility Tests for Bacteria That Grow Aerobically; Approved Standard-Ninth Edition”).
To prepare for MIC testing, frozen glycerol stocks of clinical isolates (Klebsiella pneumoniae, Eschericia coli, Enterobacter spp, Citrobacter spp, or Pseudomonas aeruginosa) were used to streak for isolated colonies on rich, non-selective, tryptic soy agar containing 5% sheep's blood (TSAB). Frozen glycerol stocks of laboratory engineered, isogenic E. coli strains, which contain cloned β-lactamase expressing plasmids were used to streak for isolated colonies on rich, selective LB agar supplemented with 25 μg/mL tetracycline to maintain the plasmid. All strains were incubated at 37° C. for 18-24 hrs.
On the day of testing, primary cultures were started by scraping off 5-10 colonies from the TSAB plates containing clinical strains or the tetracycline supplemented LB plates containing engineered strains. The clinical strain material was suspended in ˜5 mL of cation adjusted Mueller Hinton Broth (CAMHB) in 14 mL culture tubes. The engineered strain material was suspended in CAMHB (supplemented with 25 μg/mL tetracycline) in 14 mL culture tubes. All strains were incubated at 37° C. with aeration (200 rpm) for ˜2 hrs until the optical density at 600 nm (OD600) was >0.1.
The two compound components of the assay were each diluted in CAMHB and added to the 96-well broth microdilution assay plates. 50 μL of the β-lactam was added to each well of the assay plate in 2-fold dilutions with final concentrations ranging from 128 to 0.13 μg/mL. 25 μL, of the BLI compound was added to all wells in the broth microdilution plates at a final concentration of 4 μg/mL. Inoculum cultures were prepared by standardizing the primary cultures to OD600=0.1 and then adding 20 μL of the adjusted primary culture per 1 mL CAMHB for clinical strains or CAMHB (supplemented with tetracycline at 100 μg/mL) for engineered strains, so that the final inoculum density was ˜10^5 colony forming units per milliliter. Diluted inoculum cultures were used to inoculate 25 μl, per well in 96-well broth microdilution assay plates. The final volume of each well was 100 μL and contained a β-lactam at different concentrations, a BLIcompound at 4 μg/mL concentration, the bacterial culture at an OD600 of approximately 0.001 and when necessary tetracycline at 25 μg/mL.
Plates were incubated for 18-20 hours at 37° C. with aeration (200 rpm). Following incubation, growth was confirmed visually placing plates over a viewing apparatus (stand with a mirror underneath) and then OD600 was measured using a SpectraMax 340PC384 plate reader (Molecular Devices, Sunnyvale, Calif.). Growth was defined as turbidity that could be detected with the naked eye or achieving minimum OD600 of 0.1. MIC values were defined as the lowest concentration producing no visible turbidity.
The synergy MIC (sMIC) assay determines the concentration of the BLI required to potentiate the activity of a fixed concentration of a β-lactam antibiotic against β-lactamase producing bacterial strains. The experimental protocol was performed according to Clinical and Laboratory Standards Institute (CLSI) guidelines with modifications as described below (CLSI guidelines can be derived from the CLSI document M07-A9 published in January 2012: “Methods for Dilution Antimicrobial Susceptibility Tests for Bacteria That Grow Aerobically; Approved Standard-Ninth Edition”). […]

SMILES | more active than Avibactam for at least one bacterial strain that expresses KPC β-lactamase and/or better spectrum of activity against KPC strains
O=C1N2C[C@@H](CC[C@H]2c2nnc(CCNC3CNC3)o2)N1OS(=O)(=O)O [Compound 745, (2S,5R)-2-(5-(2-(azetidin-3-ylamino)ethyl)-1,3,4-oxadiazol-2-yl)-7-oxo-1,6-diazabicyclo[3.2.1]octan-6-yl hydrogen sulfate] | more active than Avibactam
O=C1N2C[C@@H](CC[C@H]2c2nnc(CNC3CNC3)o2)N1OS(=O)(=O)O [Compound 726, (2S,5R)-2-(5-((azetidin-3-ylamino)methyl)-1,3,4-oxadiazol-2-yl)-7-oxo-1,6-diazabicyclo[3.2.1]octan-6-yl hydrogen sulfate] | more active than Avibactam
N[C@H]1C[C@@H](Cc2nnc([C@@H]3CC[C@@H]4CN3C(=O)N4OS(=O)(=O)O)o2)C1 [Compound 728, (2S,5R)-2-(5-(((1s,3R)-3-aminocyclobutyl)methyl)-1,3,4-oxadiazol-2-yl)-7-oxo-1,6-diazabicyclo[3.2.1]octan-6-yl hydrogen sulfate] | more active than Avibactam
O=C1N2C[C@@H](CC[C@H]2c2nnc(CN[C@@H]3CCNC3)o2)N1OS(=O)(=O)O [Compound 766, (2S,5R)-7-oxo-2-(5-(((R)-pyrrolidin-3-ylamino)methyl)-1,3,4-oxadiazol-2-yl)-1,6-diazabicyclo[3.2.1]octan-6-yl hydrogen sulfate] | more active than Avibactam
N=C(N)NC[C@@H](O)c1nnc([C@@H]2CC[C@@H]3CN2C(=O)N3OS(=O)(=O)O)o1 [Compound 731, (2S,5R)-2-(5-((R)-2-guanidino-1-hydroxyethyl)-1,3,4-oxadiazol-2-yl)-7-oxo-1,6-diazabicyclo[3.2.1]octan-6-yl hydrogen sulfate] | more active than Avibactam
NCCCCc1nnc([C@@H]2CC[C@@H]3CN2C(=O)N3OS(=O)(=O)O)o1 [Compound 735, (2S,5R)-2-(5-(4-aminobutyl)-1,3,4-oxadiazol-2-yl)-7-oxo-1,6-diazabicyclo[3.2.1]octan-6-yl hydrogen sulfate] | more active than Avibactam
NCCc1nnc([C@@H]2CC[C@@H]3CN2C(=O)N3OS(=O)(=O)O)o1 [Compound 703, (2S,5R)-2-(5-(2-aminoethyl)-1,3,4-oxadiazol-2-yl)-7-oxo-1,6-diazabicyclo[3.2.1]octan-6-yl hydrogen sulfate] | more active than Avibactam
CNCCCc1nnc([C@@H]2CC[C@@H]3CN2C(=O)N3OS(=O)(=O)O)o1 [Compound 734, 2S,5R)-2-(5-(3-(methylamino)propyl)-1,3,4-oxadiazol-2-yl)-7-oxo-1,6-diazabicyclo[3.2.1]octan-6-yl hydrogen sulfate] | more active than Avibactam
NCCCc1nnc([C@@H]2CC[C@@H]3CN2C(=O)N3OS(=O)(=O)O)o1 [Compound 720, (2S,5R)-2-(5-(3-aminopropyl)-1,3,4-oxadiazol-2-yl)-7-oxo-1,6-diazabicyclo[3.2.1]octan-6-yl hydrogen sulfate] | more active than Avibactam
N=C(N)N[C@H]1C[C@@H](c2nnc([C@@H]3CC[C@@H]4CN3C(=O)N4OS(=O)(=O)O)s2)C1 [Compound 784, (2S,5R)-2-(5-((1s,3R)-3-guanidinocyclobutyl)-1,3,4-thiadiazol-2-yl)-7-oxo-1,6-diazabicyclo[3.2.1]octan-6-yl hydrogen sulfate] | more active than Avibactam
